Experimental findings from patent US20240415786A1, “COMPOSITIONS AND METHODS USING AN AUTOPHAGY INDUCER TO ENHANCE INTERMITTENT FASTING” (SOCIETE DES PRODUITS NESTLE S.A., priority 2021, published 2024) are described below.

The subject of assay [1] is C. elegans. Description: Worm survival assay on solid agar plate. It is filed as in vivo. The settings on record: thymol 50 M (so in the source), solid agar plates, n=60 per group, vs vehicle (DMSO 1%), log rank test. As for the experimental part: C. elegans strains were cultured at 20° C. on nematode growth media agar plates seeded with E. coli strain OP50. Thymol was dissolved in DMSO and added at the indicated concentrations just before pouring the plates. Worms were exposed to compounds during the full life from eggs until death. To ensure a permanent exposure to the compound, plates were changed twice a week. The control population was treated with the corresponding concentration of DMSO at 1%. For lifespan measurements, parental F0 L4 worms were grown to reach adulthood and lay eggs on the treatment plates. The derived F1 worms were therefore exposed to compounds during the full life from eggs until death. Adults were daily scored manually as dead or alive. A worm was considered dead if it was not moving spontaneously and it was not responding to a touch on the head. The control population was treated with the corresponding concentration of DMSO at 1%.

The subject of assay [2] is C. elegans. Kind of assay: Worm survival assay in microfluidics. In kind it is in vivo. The settings on record: thymol 50 μM, worms treated in microfluidics (conditions mimicking IF), vs vehicle, log rank test. As for the experimental part:
A worm suspension is first injected into a microfluidic device. The geometry of the device is optimized for retaining inside the worm culture chamber only adult worms by simply selecting the correct flow rate for the sample injection. Upon isolation of a defined worm population inside the chamber, worms are cultured and treated on-chip with thymol at controlled temperature of 20° C. Worm culture is maintained in the chamber by the perfusion of E. coli. The microfluidic chip is integrated onto an inverted microscope integrated with a camera that continuously records videos (every 10 hours). Images are longitudinally analyzed by different parameters that include readouts of body bends frequency, velocity, curvature and amplitude of the movement at the head, tail and middle of the body, which automatically provide information about worms health span and vitality.

`Cc1ccc(C(C)C)c(O)c1` [thymol]: the effect on lifespan result is “no significant effects on lifespan” in the assay with C. elegans [1] and “increases lifespan” with C. elegans [2].
